Data: paper PMC5967645 (European scientific journal, 2017)

System: calpain
Assay: immunoblot of calcium-induced calpain-mediated spectrin breakdown product
Assay type: biochemical, Rattus norvegicus

With `CCOC(=O)[C@H]1O[C@@H]1C(=O)N[C@@H](CC(C)C)C(=O)NCCC(C)C` [E64d, 2S,3S-trans-epoxysuccinyl-L-leucylamido-3-methylbutane ethyl ester] the IC50 was 3 to 6 µM.
